Values after ≈ are worked out from the molar mass of the structure shown. “Also recorded” adds a separate entry of the source. Read-outs that look alike come from different tables or passages of the source.
Experiments:
S. aureus FDA 209P = test: Minimum inhibitory concentration, agar dilution, S. aureus FDA 209P; format: cell-based, Staphylococcus aureus FDA 209P; settings: for MIC: Staphylococcus aureus, FDA209P, agar dilution, average of duplicate determinations; for antibacterial activity in words, S. aureus FDA 209P: compared with corresponding phloroglucides
Method: (§1) Determination of Minimum Inhibitory Concentrations. The screening experiments in vitro were carried out for antibacterial activities of the phloroglucide analogs II-VII, XII-XIV, bifunctional cephalosporins VIII and IX, as well as 7-(phloroglucidamido)cephalosporins X and XI. Cephalosporins XV and XVI were used as the reference compounds. The lowest concentrations of antibiotics needed for prevention of visible growth of microorganisms; reported as the average values of duplicate determinations. Minimum inhibitory concentrations (MIC) values obtained by use of an agar dilution method whereby organisms were deposited onto medicated agar plates by the replication device of Steers et al [Steers, F. et al. Antibiot. Chemother. 1959, 9, 307].

S. aureus 95 = test: Minimum inhibitory concentration, agar dilution, S. aureus 95; format: cell-based, Staphylococcus aureus 95; settings: for activity against β-lactamase producing microorganisms, in words: i.e., S. aureus 95
Method: as §1

C. albicans = test: Minimum inhibitory concentration, agar dilution, C. albicans; format: cell-based; settings: Candida albicans, read-out: Minimum Inhibitory Concentration (MIC), C. albicans
Method: as §1

Ps. aerureus 1101-75 = test: Minimum inhibitory concentration, agar dilution, Ps. 1101-75; format: cell-based, Pseudomonas aeruginosa
Method: as §1

PS. aerureus 18S-H = test: Minimum inhibitory concentration, agar dilution, Ps. 18S-H; format: cell-based, Pseudomonas aeruginosa 18S-H; settings: Pseudomonas aeruginosa, 18SH, read-out: Minimum Inhibitory Concentration (MIC), PS. aerureus 18S-H
Method: as §1

[1] = test system: pathogenic microorganisms; test: Antibacterial activity in vitro (statements in words); format: cell-based
Method: as §1

[2] = target: T1, β-lactamase of S. aureus 95 (Staphylococcus aureus, UniProt P00807); test: Minimum protective concentration against β-lactamase of S. aureus 95; format: biochemical; settings: protection of chromogenic cephem indicator from hydrolysis within 40 min, average of duplicates
T1 construct: chromogenic cephalosporin (nitrocefin type) hydrolysis
T1 sequence (P00807 25-281): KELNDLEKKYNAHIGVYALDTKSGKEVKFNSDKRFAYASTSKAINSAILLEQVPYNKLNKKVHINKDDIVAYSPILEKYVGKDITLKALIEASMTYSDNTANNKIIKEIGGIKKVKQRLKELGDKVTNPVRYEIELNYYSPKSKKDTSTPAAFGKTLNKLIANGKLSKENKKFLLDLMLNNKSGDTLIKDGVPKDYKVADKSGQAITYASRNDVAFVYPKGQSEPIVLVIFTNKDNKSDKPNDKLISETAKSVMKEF
From the text: (§2) Determination of Minimum Protective Concentrations. The β-lactamase inhibitory properties of cephalosporin-phloroglucide esters VIII and IX as well as 7-(phloroglucidamido)cephalosporins X and XI were studied. Cephalosporins XV and XVI as well as clavulanic acid (XVII) were used in vitro as the reference compound. The average values of duplicate determinations and the ability of compounds to inhibit the hydrolysis of 3-[E-(2,4-dinitro)styryl]-(6R,7R)-7-(2-thienylacetamido)-3-cephem-4-carboxylic acid by β-lactamases from S. aureus 95 and Ps. aeruginosa 18S-H. Minimum protective concentrations (MPC) values were determined by the procedure of O'Callaghan ct al. [O'Callaghan C. H. ct al. Antimicrob. Agents Chemother. 1972, 1, 283] and are the lowest concentrations of β-lactams needed to protect the indicator from hydrolysis by β-lactamases under standard test conditions within 40 min. The hydrolysis of indicator was evidenced by the appearance of a distinct red color.

[3] = test system: β-lactamase of PS. aeruginosa 18S-H; test: Minimum protective concentration against β-lactamase of Ps. aeruginosa 18S-H; format: biochemical; settings: protection of chromogenic cephem indicator from hydrolysis within 40 min, average of duplicates
From the text: as §2

[4] = test system: β-lactamases of S. aureus 95 and Ps. aeruginosa 18S-H; test: Behaviour towards β-lactamases (statements in words); format: biochemical
From the text: as §2

[5] = Stability in the absence of β-lactamases in phosphate buffer solution; format: physicochemical; settings: 37° C., pH 6.5
[6] = Staphylococcus aureus, 95, agar dilution, average of duplicates, β-lactamase-producing, methicillin resistant organism, read-out: Minimum Inhibitory Concentration (MIC), S. aureus 95
[7] = agar dilution, average of duplicate determinations
[8] = Pseudomonas aeruginosa, 110175, agar dilution, average of duplicate determinations, read-out: Minimum Inhibitory Concentration (MIC), Ps. aerureus 1101-75

Row | Compound | MIC (S. aureus FDA 209P) [µg/mL] | MIC (S. aureus 95; [6]) [µg/mL] | MIC (C. albicans; [7]) [µg/mL] | MIC (Ps. aerureus 1101-75; [8]) [µg/mL] | MIC (PS. aerureus 18S-H) [µg/mL] | antibacterial activity in words [1] | MIC (S. aureus 95; Staphylococcus aureus, 95, read-out: Minimum Inhibitory Concentration (MIC), S. aureus 95) [µg/mL] | activity against β-lactamase producing microorganisms, in words (S. aureus 95) | MIC (C. albicans) [µg/mL] | MIC (Ps. aerureus 1101-75; Pseudomonas aeruginosa, 110175, read-out: Minimum Inhibitory Concentration (MIC), Ps. aerureus 1101-75) [µg/mL] | Minimum Protective Concentration (MPC), β-lactamase of S. aureus 95 [2] [µg/mL] | Minimum Protective Concentration (MPC), β-lactamase of PS. aeruginosa 18S-H [3] [µg/mL] | hydrolysis by / stability towards β-lactamases, in words [4] | β-lactamase inhibitory property, in words [4] | antibacterial activity in words, S. aureus FDA 209P (S. aureus FDA 209P) | β-lactam ring destructed (time) [5] [h]
1 | CNC(=O)c1cccc(Cc2cc(Cl)cc(Cc3ccccc3O)c2O)c1O [VI] | 7.35 (≈ 18.5 µM) | 6.63 (≈ 16.7 µM) | 114 (≈ 287 µM) | 3.28 (≈ 8.24 µM) | 4.7 (≈ 11.8 µM) | lower efficacy than phloroglucides (II) and (III) as well as the bifunctional cephalosporins (VIII) and (IX) | – | – | – | – | – | – | – | – | – | –
2 | CC(=O)OCC1=C(C(=O)O)N2C(=O)[C@@H](NC(=O)COc3ccccc3)[C@H]2SC1 [XV, reference compound] | 0.7 (≈ 1.72 µM) | – | – | – | > 145 | – | > 145 | did not show significant activity | > 145 | > 145 | 1.35 | 0.97 | susceptible to hydrolysis by β-lactamases | – | – | –
3 | O=C(O)c1cccc(C(=O)c2cc(Cl)cc(C(=O)c3ccccc3O)c2O)c1O [III, 2-(3-Carboxy-2-hydroxybenzoyl)-6-(2-hydroxybenzoyl)-4-chlorophenol] | 3.67 (≈ 8.89 µM) | 0.98 (≈ 2.37 µM) | 3.7 (≈ 8.96 µM) | 0.17 (≈ 0.412 µM) | 0.26 (≈ 0.63 µM) | its antimicrobial property decreased; also recorded: In comparison with dicarboxylic acid derivative (XV), mono-carboxylic acid (III) however exhibited greater potency; also recorded: lower efficacy than phenolic acid (II) and phenol (XII) against pathogenic microorganisms | – | – | – | – | – | – | – | – | – | –
4 | COC(=O)c1cccc(Cc2cc(Cl)cc(Cc3ccccc3O)c2O)c1O [IV] | 2.98 (≈ 7.47 µM) | 4.65 (≈ 11.7 µM) | 117 (≈ 294 µM) | 1.25 (≈ 3.13 µM) | 1.56 (≈ 3.91 µM) | lower efficacy than phloroglucides (II) and (III) as well as the bifunctional cephalosporins (VIII) and (IX) | – | – | – | – | – | – | – | – | – | –
5 | CNC(=O)c1cccc(C(=O)c2cc(Cl)cc(C(=O)c3ccccc3O)c2O)c1O [VII] | 18.1 (≈ 42.6 µM) | 17.8 (≈ 41.7 µM) | 120 (≈ 281 µM) | 6.03 (≈ 14.2 µM) | 8.32 (≈ 19.5 µM) | lower efficacy than phloroglucides (II) and (III) as well as the bifunctional cephalosporins (VIII) and (IX) | – | – | – | – | – | – | – | – | – | –
6 | CO/N=C(\C(=O)N[C@@H]1C(=O)N2C(C(=O)O)=C(COC(C)=O)CS[C@H]12)c1csc(N)n1 [XVI, reference compound] | 1.7 (≈ 3.73 µM) | 40.6 (≈ 89.1 µM) | > 145 | 69.9 (≈ 153 µM) | 135 (≈ 296 µM) | – | – | did not show significant activity | – | – | 2.72 | 1.03 | susceptible to hydrolysis by β-lactamases | – | – | –
7 | O=C(O)c1cccc(Cc2cc(Cl)cc(Cc3ccccc3O)c2O)c1O [II, 2-(3-Carboxy-2-hydroxybenzyl)-6-(2-hydroxybenzyl)-4-chlorophenol] | 0.86 (≈ 2.23 µM) | 0.43 (≈ 1.12 µM) | 1.43 (≈ 3.72 µM) | 0.02 (≈ 0.052 µM) | 0.1 (≈ 0.26 µM) | more potent antimicrobial activity than that of the model phloroglucide (XXI) | – | – | – | – | – | – | – | – | – | –
8 | CC(=O)OCC1=C(C(=O)O)N2C(=O)[C@@H](NC(=O)c3cccc(C(=O)c4cc(Cl)cc(C(=O)c5ccccc5O)c4O)c3O)[C@H]2SC1 [XI, 7-{3-[5-Chloro-2-hydroxy-3-(2-hydroxybenzoyl)benzoyl]-2-hydroxy-benzamido}cephalosporanic Acid] | 0.78 (≈ 1.17 µM) | 0.45 (≈ 0.675 µM) | 14.2 (≈ 21.3 µM) | 0.79 (≈ 1.18 µM) | 0.38 (≈ 0.57 µM) | notable antibacterial activity | – | – | – | – | 88.68 | 93.45 | stability towards β-lactamases | did not exhibit notable β-lactamase inhibitory property | – | –
9 | Oc1ccccc1Cc1cc(Cl)cc(Cc2ccccc2O)c1O [XII, reference compound] | 1.2 (≈ 3.52 µM) | 0.58 (≈ 1.7 µM) | 2.06 (≈ 6.04 µM) | 0.07 (≈ 0.205 µM) | 0.18 (≈ 0.528 µM) | – | – | – | – | – | – | – | – | – | – | –
10 | O=C(COc1ccccc1)N[C@@H]1C(=O)N2C(C(=O)O)=C(COC(=O)c3cccc(Cc4cc(Cl)cc(Cc5ccccc5O)c4O)c3O)CS[C@H]12 [VIII, 3-{3-[5-Chloro-2-hydroxy-3-(2-hydroxybenzyl)benzyl]-2-hydroxy-benzoyloxymethyl}-7-phenoxyacetamido-3-cephem-4-carboxylic Acid] | 0.41 (≈ 0.561 µM) | 1.2 (≈ 1.64 µM) | 5.86 (≈ 8.01 µM) | 0.98 (≈ 1.34 µM) | 1.24 (≈ 1.7 µM) | broadened spectrum of antibacterial activity in vitro; also recorded: less activity against other pathogenic microorganisms; also recorded: phloroglucide-like antibacterial activity | – | – | – | – | 7.08 | 6.74 | underwent hydrolysis to liberate their phloroglucidc components | – | greater antibacterial activity than the corresponding phloroglucides (II) and (III) against S. aureus FDA 209P | –
11 | COC(=O)c1cccc(C(=O)c2cc(Cl)cc(C(=O)c3ccccc3O)c2O)c1O [V] | 14.7 (≈ 34.4 µM) | 15.3 (≈ 35.9 µM) | 125 (≈ 294 µM) | 5.78 (≈ 13.5 µM) | 4.3 (≈ 10.1 µM) | lower efficacy than phloroglucides (II) and (III) as well as the bifunctional cephalosporins (VIII) and (IX) | – | – | – | – | – | – | – | – | – | –
12 | O=C(COc1ccccc1)N[C@@H]1C(=O)N2C(C(=O)O)=C(COC(=O)c3cccc(C(=O)c4cc(Cl)cc(C(=O)c5ccccc5O)c4O)c3O)CS[C@H]12 [IX, 3-{3-[5-Chloro-2-hydroxy-3-(2-hydroxybenzoyl)benzoyl]-2-hydroxy-benzoyloxymethyl}-7-phenoxyacetamido-3-cephem-4-carboxylic Acid] | 0.9 (≈ 1.19 µM) | 2.1 (≈ 2.77 µM) | 6.47 (≈ 8.52 µM) | 1.37 (≈ 1.8 µM) | 3.13 (≈ 4.12 µM) | – | – | – | – | – | 4.81 | 5.98 | underwent hydrolysis to liberate their phloroglucidc components | – | greater antibacterial activity than the corresponding phloroglucides (II) and (III) against S. aureus FDA 209P | –
13 | O=C(O)c1cccc(Cc2cc(Cl)cc(Cc3cccc(C(=O)O)c3O)c2O)c1O [XIII, reference compound] | 3.25 (≈ 7.58 µM) | 4.15 (≈ 9.68 µM) | 16.5 (≈ 38.5 µM) | 0.86 (≈ 2.01 µM) | 1.32 (≈ 3.08 µM) | – | – | – | – | – | – | – | – | – | – | –
14 | O=C(O)c1cccc(C(=O)c2cc(Cl)cc(C(=O)c3cccc(C(=O)O)c3O)c2O)c1O [XIV, reference compound] | 18.2 (≈ 40 µM) | 22.2 (≈ 48.6 µM) | 19.1 (≈ 41.9 µM) | 2.54 (≈ 5.56 µM) | 3.06 (≈ 6.7 µM) | – | – | – | – | – | – | – | – | – | – | –
15 | O=C(O)[C@H]1/C(=C/CO)O[C@@H]2CC(=O)N21 [XVII, clavulanic acid, reference compound] | – | – | – | – | – | – | – | – | – | – | 0.38 | 3.00 | – | – | – | ≤ 13
16 | CC(=O)OCC1=C(C(=O)O)N2C(=O)[C@@H](NC(=O)c3cccc(Cc4cc(Cl)cc(Cc5ccccc5O)c4O)c3O)[C@H]2SC1 [X, 7-{3-[5-Chloro-2-hydroxy-3-(2-hydroxybenzyl)benzyl]-2-hydroxy-benzamido}cephalosporanic Acid] | 0.35 (≈ 0.548 µM) | 0.28 (≈ 0.438 µM) | 28.3 (≈ 44.3 µM) | 0.28 (≈ 0.438 µM) | 0.45 (≈ 0.704 µM) | notable antibacterial activity; also recorded: potent phloroglucide-like antibacterial activity | – | – | – | – | 95.20 | 99.78 | stability towards β-lactamases | did not exhibit notable β-lactamase inhibitory property | – | –
